# Measured values from ChEMBL document CHEMBL1201862, “PubChem BioAssay data set” (2004).
# Calls of active or inactive are those of the source. Cut-off read from the data, not from the text of the source, for most assays here: actives have a measured EC50 and inactives only a lower limit.
# What was measured:
# Protein RecA = molecular target: T1, Protein RecA (Mycobacterium tuberculosis, UniProt P9WHJ3); experiment: Fluorescence Cell-Free Homogeneous Dose Retest to Identify Inhibitors of RecA-Intein Splicing Activity. [Related pubchem assays (depositor defined):AID2097, AID2223, AID489010, AID492950]; format: functional
# T1 sequence (P9WHJ3 whole entry): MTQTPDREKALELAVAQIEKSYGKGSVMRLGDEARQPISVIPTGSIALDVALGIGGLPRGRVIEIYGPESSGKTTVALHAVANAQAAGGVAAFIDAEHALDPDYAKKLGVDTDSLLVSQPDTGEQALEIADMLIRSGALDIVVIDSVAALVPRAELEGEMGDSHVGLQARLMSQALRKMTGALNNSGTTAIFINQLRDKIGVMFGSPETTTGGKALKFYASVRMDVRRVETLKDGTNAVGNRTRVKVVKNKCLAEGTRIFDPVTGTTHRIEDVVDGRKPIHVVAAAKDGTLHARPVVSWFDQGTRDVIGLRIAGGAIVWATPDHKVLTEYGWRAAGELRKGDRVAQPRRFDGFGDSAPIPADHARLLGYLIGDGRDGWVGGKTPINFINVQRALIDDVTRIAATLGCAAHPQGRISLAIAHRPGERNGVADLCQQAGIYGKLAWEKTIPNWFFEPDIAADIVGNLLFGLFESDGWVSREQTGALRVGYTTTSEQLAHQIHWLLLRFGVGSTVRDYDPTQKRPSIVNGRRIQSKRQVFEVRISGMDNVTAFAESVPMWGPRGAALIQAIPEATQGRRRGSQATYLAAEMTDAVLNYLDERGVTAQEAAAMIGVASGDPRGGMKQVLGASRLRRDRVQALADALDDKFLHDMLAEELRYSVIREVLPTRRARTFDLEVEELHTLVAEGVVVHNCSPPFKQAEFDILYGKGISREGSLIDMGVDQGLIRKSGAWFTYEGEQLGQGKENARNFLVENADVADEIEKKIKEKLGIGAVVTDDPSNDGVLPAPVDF
# [1] = Shn3 3'UTR reporter inhibitors, dose response, cell-based, Clone20 osteoblasts, firefly luciferase, cherry-picked (AID 624132); format: functional;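 note: firefly luciferase luminescence from reporter carrying the Shn3 3'UTR in osteoblasts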
# [2] = control 3'UTR Renilla luciferase suppression, dose response, counter-screen for Shn3 inhibitor project, cell-based, Clone20-Shn3RL, cherry-picked (AID 624133); format: functional
# [3] = molecular target: Heat shock protein HSP 90-alpha (Homo sapiens, UniProt P07900); format: functional, organism-based
# [4] = C. albicans growth with fluconazole, confirmation, fluorescence, retest (AID 2467); format: functional, cell-based
# [5] = molecular target: T2, Replicative DNA helicase DnaB (Mycobacterium tuberculosis, UniProt P9WMR3); experiment: DnaB intein splicing inhibitors, dose response, biochemical, cell-free fluorescence (AID 449749); format: functional
# T2 sequence (P9WMR3 whole entry): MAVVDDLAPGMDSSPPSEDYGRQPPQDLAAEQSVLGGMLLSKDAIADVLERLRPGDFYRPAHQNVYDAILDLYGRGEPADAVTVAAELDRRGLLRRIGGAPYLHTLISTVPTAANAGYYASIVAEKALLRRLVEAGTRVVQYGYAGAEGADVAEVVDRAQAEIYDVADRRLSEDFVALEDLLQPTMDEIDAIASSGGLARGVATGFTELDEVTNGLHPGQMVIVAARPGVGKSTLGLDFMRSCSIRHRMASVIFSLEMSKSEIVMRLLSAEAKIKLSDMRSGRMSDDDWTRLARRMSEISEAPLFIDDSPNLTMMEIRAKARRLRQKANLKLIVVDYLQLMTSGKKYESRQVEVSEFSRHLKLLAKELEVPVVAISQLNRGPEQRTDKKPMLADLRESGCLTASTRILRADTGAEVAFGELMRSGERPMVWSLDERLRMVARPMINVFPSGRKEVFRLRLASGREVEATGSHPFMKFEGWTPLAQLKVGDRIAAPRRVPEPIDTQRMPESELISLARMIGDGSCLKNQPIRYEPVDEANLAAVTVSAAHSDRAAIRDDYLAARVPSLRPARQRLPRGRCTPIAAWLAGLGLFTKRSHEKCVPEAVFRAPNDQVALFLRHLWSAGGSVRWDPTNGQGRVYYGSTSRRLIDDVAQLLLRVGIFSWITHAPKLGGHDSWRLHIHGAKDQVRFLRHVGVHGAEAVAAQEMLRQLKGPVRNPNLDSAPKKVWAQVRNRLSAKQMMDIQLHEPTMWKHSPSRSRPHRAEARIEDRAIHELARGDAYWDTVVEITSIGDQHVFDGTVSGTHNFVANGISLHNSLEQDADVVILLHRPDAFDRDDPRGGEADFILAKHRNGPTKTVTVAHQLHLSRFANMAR
# [6] = HepG2 cell cytotoxicity, dose response, cytotoxicity control for Shn3 inhibitor project, CellTiter-Glo, cherry-picked (AID 624134); format: functional, cell-based
# [7] = NIH-3T3 fibroblast cytotoxicity, dose response, cytotoxicity control, cell-based, fluorescence, Alamar Blue, secondary assay (AID 2327); format: functional;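 note: NIH-3T3 mouse fibroblasts cultured with fluconazole at 8 µg/mL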
# [8] = molecular target: T3, Ubiquitin-conjugating enzyme E2 N (Homo sapiens, UniProt P61088); format: functional;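 note: Dose-response confirmation in a TR-FRET assay detecting UBC13-driven polyubiquitin chain formation, inhibition measured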
# T3 sequence (P61088 whole entry): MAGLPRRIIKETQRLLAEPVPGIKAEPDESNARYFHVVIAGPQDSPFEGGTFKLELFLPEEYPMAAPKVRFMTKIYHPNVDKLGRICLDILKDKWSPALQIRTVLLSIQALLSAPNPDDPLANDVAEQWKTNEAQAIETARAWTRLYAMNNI
# [9] = system: Streptococcus sp. 'group A'; experiment: growth inhibition of control SK(-) GAS strain, dose response, counter-screen for streptokinase expression inhibitor project, luminescence, kanamycin, BacTiterGlo, confirmation (AID 1900); format: functional, organism-based
# Streptococcus = experiment: Group A Streptococcus viability loss, dose response, counter-screen for streptokinase expression inhibitor project, luminescence, BacTiterGlo (AID 1915); format: functional, organism-based;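 note: potency for reduction of bacterial viability or growth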
# [10] = Luminescence Cell-Based Dose Retest to Confirm Inhibitors of Cancer Stem Cells. [Related pubchem assays (depositor defined):AID2717, AID2721]; format: functional, Homo sapiens
# Streptokinase A = molecular target: T4, Streptokinase A (Streptococcus pyogenes serotype M1, UniProt P10520); experiment: S. pyogenes streptokinase expression inhibitors, potency, dose response, plasminogen activation absorbance, OD405 (AID 1914); format: functional, Streptococcus pyogenes M1 GAS;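 note: secreted streptokinase activity via plasminogen activation per viability signal from cell pellet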
# T4 sequence (P10520 whole entry): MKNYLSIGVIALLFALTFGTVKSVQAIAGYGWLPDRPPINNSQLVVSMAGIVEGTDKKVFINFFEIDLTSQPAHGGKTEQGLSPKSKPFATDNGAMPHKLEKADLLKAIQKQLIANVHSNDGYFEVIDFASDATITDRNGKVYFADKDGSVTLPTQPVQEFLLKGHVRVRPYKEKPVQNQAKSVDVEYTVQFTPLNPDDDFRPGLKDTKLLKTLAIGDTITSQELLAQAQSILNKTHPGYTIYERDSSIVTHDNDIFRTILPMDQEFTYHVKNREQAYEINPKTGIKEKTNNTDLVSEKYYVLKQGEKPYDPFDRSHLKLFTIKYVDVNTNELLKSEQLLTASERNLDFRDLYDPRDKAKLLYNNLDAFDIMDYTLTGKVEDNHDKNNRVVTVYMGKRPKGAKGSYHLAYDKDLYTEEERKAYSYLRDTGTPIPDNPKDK
# [11] = molecular target: T5, Zinc finger protein mex-5 (Caenorhabditis elegans, UniProt Q9XUB2); experiment: MEX-5/TCR-2 RNA interaction inhibitors, dose response, biochemical, C. elegans, fluorescence polarization (AID 1960)
# T5 sequence (Q9XUB2 whole entry): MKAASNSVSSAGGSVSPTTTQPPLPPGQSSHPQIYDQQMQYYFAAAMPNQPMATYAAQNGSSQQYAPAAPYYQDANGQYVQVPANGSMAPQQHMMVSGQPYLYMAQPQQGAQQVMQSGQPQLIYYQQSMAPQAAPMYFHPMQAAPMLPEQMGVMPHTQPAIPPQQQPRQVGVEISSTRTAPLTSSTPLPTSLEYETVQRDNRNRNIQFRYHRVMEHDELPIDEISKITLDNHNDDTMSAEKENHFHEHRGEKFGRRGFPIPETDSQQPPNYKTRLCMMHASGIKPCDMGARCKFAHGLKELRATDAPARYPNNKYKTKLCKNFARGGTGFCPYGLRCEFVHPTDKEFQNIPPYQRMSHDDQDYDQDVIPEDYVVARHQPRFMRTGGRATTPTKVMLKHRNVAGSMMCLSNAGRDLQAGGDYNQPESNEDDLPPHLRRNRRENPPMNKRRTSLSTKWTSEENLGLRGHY
# [12] = molecular target: T6, RNA-binding protein pos-1 (Caenorhabditis elegans, UniProt G5EF15); experiment: inhibitors of POS-1/mex-3 RNA binding, dose response, biochemical, fluorescence polarization (AID 1964);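 note: purified POS-1 fused to maltose binding protein made in E. coli; potency of compounds blocking POS-1 binding to fluorescent RNA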
# T6 sequence (G5EF15 whole entry): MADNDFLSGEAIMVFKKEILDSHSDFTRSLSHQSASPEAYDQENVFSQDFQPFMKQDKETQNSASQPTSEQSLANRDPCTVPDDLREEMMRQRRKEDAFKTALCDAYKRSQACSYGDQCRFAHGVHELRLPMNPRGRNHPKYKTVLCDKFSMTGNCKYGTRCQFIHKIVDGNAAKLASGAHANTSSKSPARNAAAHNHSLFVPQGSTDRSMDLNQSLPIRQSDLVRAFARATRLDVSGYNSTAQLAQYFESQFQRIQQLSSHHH
# [13] = molecular target: T7, Corticotropin-releasing factor receptor 2/Corticotropin-releasing factor-binding protein (Homo sapiens, UniProt P24387+Q13324); experiment: Dose Response confirmation of uHTS hits for small molecule antagonists of the CRF-binding protein and CRF-R2 receptor complex.; format: functional; conditions: read-out: IC50_Mean
# T7 sequence (Q13324 whole entry): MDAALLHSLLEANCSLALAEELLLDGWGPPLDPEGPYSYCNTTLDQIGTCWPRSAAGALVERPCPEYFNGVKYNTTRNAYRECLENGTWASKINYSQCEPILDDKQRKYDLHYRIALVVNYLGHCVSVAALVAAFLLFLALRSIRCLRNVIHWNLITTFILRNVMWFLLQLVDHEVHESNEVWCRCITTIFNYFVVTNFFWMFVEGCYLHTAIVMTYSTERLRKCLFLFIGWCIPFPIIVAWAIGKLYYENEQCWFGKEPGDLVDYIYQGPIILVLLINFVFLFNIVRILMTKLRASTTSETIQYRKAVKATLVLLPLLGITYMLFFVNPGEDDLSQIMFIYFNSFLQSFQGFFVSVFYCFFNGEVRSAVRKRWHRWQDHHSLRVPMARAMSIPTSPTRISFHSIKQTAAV
# T7 sequence (P24387 whole entry): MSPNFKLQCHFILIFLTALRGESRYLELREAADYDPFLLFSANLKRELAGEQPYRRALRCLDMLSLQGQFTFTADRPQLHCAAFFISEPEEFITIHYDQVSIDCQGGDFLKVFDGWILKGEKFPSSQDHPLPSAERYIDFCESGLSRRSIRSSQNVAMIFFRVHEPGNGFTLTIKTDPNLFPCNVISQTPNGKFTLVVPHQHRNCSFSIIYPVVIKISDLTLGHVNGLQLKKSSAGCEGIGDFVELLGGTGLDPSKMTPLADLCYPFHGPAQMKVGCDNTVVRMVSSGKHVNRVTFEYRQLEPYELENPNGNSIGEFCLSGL
# [14] = molecular target: T7, Corticotropin-releasing factor receptor 2/Corticotropin-releasing factor-binding protein; experiment: activators of CRF receptor 2 with binding protein – uHTS hits, confirmation (AID 602473); format: functional; conditions: read-out: EC50_Mean
smiles,measurement,setting,value
CN1CCN(C(c2ccc(Br)cc2)c2cc(Cl)c3cccnc3c2O)CC1 (stereo unspecified),EC50,Protein RecA,3.22 µM (active)
same,AC50,[1],3.61 µM (active)
same,AC50,[2],6.28 µM (active)
same,AC50,[3],0.609 µM (active)
same,EC50,[4],0.492 µM (active)
same,AC50,[5],14.3 µM (active)
same,AC50,[6],34.9 µM (active)
same,EC50,[7],4.78 µM (inconclusive)
CC/C(=C(\c1ccccc1)c1ccc(OCCN(C)C)cc1)c1ccccc1 [TAMOXIFEN],IC50,[8],> 20 µM (inactive)
same,EC50,[9],6.5 µM (active)
same,EC50,Streptococcus,21.8 µM (active)
same,AC50,[10],5.52 µM (active)
same,EC50,Streptokinase A,> 150 µM (not active)
C=CCOn1c(=O)c(-c2cc3ccccc3o2)[n+]([O-])c2ccccc21,EC50,[11],69.7 µM (inconclusive)
same,EC50,[12],28.3 µM (inconclusive)
COc1ccc(OCC(=O)NNC(=S)NC(=O)c2ccc([N+](=O)[O-])cc2)cc1,IC50,[8],> 20 µM (inactive)
CC1CCN(c2nc3ccccc3nc2C(C#N)C(=O)NC2CCCCC2)CC1 (stereo unspecified),EC50,[9]; read-out: EC50,7.52 µM (active)
same,EC50,[11],> 300 µM (not active)
same,EC50,Streptococcus,18.3 µM (active)
same,EC50,[12],> 300 µM (not active)
same,EC50,Streptokinase A,26.2 µM (active)
Cc1c(CN2CCCCC2)c(O)n(CCCO)c(=O)c1C#N,EC50,[11],> 300 µM (not active)
same,EC50,[12],> 300 µM (not active)
CC(NC(=O)COC(=O)C1(C)CC1(Cl)Cl)c1ccccc1 (stereo unspecified),IC50,[13],> 47.1 µM (inactive)
same,EC50,[14],> 53 µM (inactive)
CN(C)c1ccc(-c2nnc(-c3ccc(S(=O)(=O)C(F)F)cc3)o2)cc1,EC50,[11],31.4 µM (inconclusive)
same,EC50,[12],55.7 µM (inconclusive)
Cc1ccc(-n2c(Cl)c(Cl)[nH]c(=O)c2=O)cc1,IC50,[13],> 47.1 µM (inactive)
same,EC50,[14],> 53 µM (inactive)
CC1CCCN(CCCNC(=O)CN2C(=O)CSc3ccc(S(=O)(=O)N4CCOCC4)cc32)C1 (stereo unspecified),IC50,[13],> 47.1 µM (inactive)
same,EC50,[14],> 53 µM (inactive)
C#CCOCCOCCOCCNc1nc(N2CCN(C(=O)[C@H]([C@@H](C)CC)n3cc(CCCN=C(N)N)nn3)CC2)nc(N2CCN(C(=O)[C@H](CCCCN)n3cc(CCCC)nn3)CC2)n1,IC50,[8],> 20 µM (inactive)
O=C(C[n+]1nc(CNc2ccc(Br)cc2)n2c1CCCCC2)c1ccc([N+](=O)[O-])cc1,IC50,[8],> 20 µM (inactive)
O=C1/C(=C/c2cccc([N+](=O)[O-])c2)CSc2ccc(Cl)cc21,IC50,[8],> 20 µM (inactive)
CCOC(=O)/C=c1\s/c(=C\c2ccc(C#N)cc2)c(=O)n1CC(=O)NCc1ccco1,EC50,[11],> 300 µM (not active)
same,EC50,[12],> 300 µM (not active)
